Laboratory results from article PMC9518264, “Design and synthesis of novel quinazolinone-based derivatives as EGFR inhibitors with antitumor activity” (Journal of Enzyme Inhibition and Medicinal Chemistry, 2022).

Assays:
CCRF-CEM = assay: cells; assay type: cell-based; conditions: Homo sapiens, 10 μM, read-out: growth inhibition % (GI%)
K-562 = assay: cells; assay type: cell-based; conditions: Homo sapiens, K562; K-562; 10 μM; read-out: growth inhibition % (GI%)
MOLT-4 = assay: cells; assay type: cell-based; conditions: Homo sapiens; MOLT-4; 10 μM; read-out: growth inhibition % (GI%)
RPMI-8226 = assay: cells; assay type: cell-based; conditions: Homo sapiens; RPMI-8226; 10 μM; read-out: growth inhibition % (GI%)
SR = assay: cells; assay type: cell-based; conditions: Homo sapiens, 10 μM, read-out: growth inhibition % (GI%)
A549/ATCC = assay: cells; assay type: cell-based; conditions: Homo sapiens; A549/ATCC; 10 μM; read-out: growth inhibition % (GI%)
EKVX = assay: cells; assay type: cell-based; conditions: Homo sapiens, 10 μM, read-out: growth inhibition % (GI%)
HOP-62 = assay: cells; assay type: cell-based; conditions: Homo sapiens; HOP-62; 10 μM; read-out: growth inhibition % (GI%)
HOP-92 = assay: cells; assay type: cell-based; conditions: Homo sapiens; HOP-92; 10 μM; read-out: growth inhibition % (GI%)
NCI-H322M = assay: cells; assay type: cell-based; conditions: Homo sapiens, 10 μM, read-out: growth inhibition % (GI%)
NCI-H460 = assay: cells; assay type: cell-based; conditions: Homo sapiens; NCI-H460; 10 μM; read-out: growth inhibition % (GI%)
COLO-205 = assay: cells; assay type: cell-based; conditions: Homo sapiens; COLO-205; 10 μM; read-out: growth inhibition % (GI%)
HCT-116 = assay: cells; assay type: cell-based; conditions: Homo sapiens; HCT-116; 10 μM; read-out: growth inhibition % (GI%)
HT29 = assay: cells; assay type: cell-based; conditions: Homo sapiens, HT-29; HT29; 10 μM; read-out: growth inhibition % (GI%)
KM12 = assay: cells; assay type: cell-based; conditions: Homo sapiens; KM12; 10 μM; read-out: growth inhibition % (GI%)
SW-620 = assay: cells; assay type: cell-based; conditions: Homo sapiens; SW-620; 10 μM; read-out: growth inhibition % (GI%)
SF-268 = assay: cells; assay type: cell-based; conditions: Homo sapiens; SF-268; 10 μM; read-out: growth inhibition % (GI%)
SF-295 = assay: cells; assay type: cell-based; conditions: Homo sapiens; SF-295; 10 μM; read-out: growth inhibition % (GI%)
SF-539 = assay: cells; assay type: cell-based; conditions: Homo sapiens; SF-539; 10 μM; read-out: growth inhibition % (GI%)
SNB-19 = assay: cells; assay type: cell-based; conditions: Homo sapiens; SNB-19; 10 μM; read-out: growth inhibition % (GI%)
U251 = assay: cells; assay type: cell-based; conditions: Homo sapiens, U-251; U251; 10 μM; read-out: growth inhibition % (GI%)
LOX IMIV = assay: cells; assay type: cell-based; conditions: Homo sapiens, 60 cell; LOX IMIV; 10 μM; read-out: growth inhibition % (GI%)
MALME-3M = assay: cells; assay type: cell-based; conditions: Homo sapiens; MALME-3M; 10 μM; read-out: growth inhibition % (GI%)
MDA-MB-435 = assay: cells; assay type: cell-based; conditions: Homo sapiens; MDA-MB-435; 10 μM; read-out: growth inhibition % (GI%)
SK-MEL-2 = assay: cells; assay type: cell-based; conditions: Homo sapiens; SK-MEL-2; 10 μM; read-out: growth inhibition % (GI%)
SK-MEL-28 = assay: cells; assay type: cell-based; conditions: Homo sapiens; SK-MEL-28; 10 μM; read-out: growth inhibition % (GI%)
SK-MEL-5 = assay: cells; assay type: cell-based; conditions: Homo sapiens; SK-MEL-5; 10 μM; read-out: growth inhibition % (GI%)
UACC-62 = assay: cells; assay type: cell-based; conditions: Homo sapiens; UACC-62; 10 μM; read-out: growth inhibition % (GI%)
IGROV1 = assay: cells; assay type: cell-based; conditions: Homo sapiens, IGROV-1; IGROV1; 10 μM; read-out: growth inhibition % (GI%)
OVCAR-5 = assay: cells; assay type: cell-based; conditions: Homo sapiens; OVCAR-5; 10 μM; read-out: growth inhibition % (GI%)
OVCAR-8 = assay: cells; assay type: cell-based; conditions: Homo sapiens; OVCAR-8; 10 μM; read-out: growth inhibition % (GI%)
NCI/ADR-RES = assay: cells; assay type: cell-based; conditions: Homo sapiens, 10 μM, read-out: growth inhibition % (GI%)
SK-OV-3 = assay: cells; assay type: cell-based; conditions: Homo sapiens; SK-OV-3; 10 μM; read-out: growth inhibition % (GI%)
786-0 = assay: cells; assay type: cell-based; conditions: Homo sapiens; 786-0; 10 μM; read-out: growth inhibition % (GI%)
A498 = assay: cells; assay type: cell-based; conditions: Homo sapiens; A498; 10 μM; read-out: growth inhibition % (GI%)
ACHN = assay: cells; assay type: cell-based; conditions: Homo sapiens, 10 μM, read-out: growth inhibition % (GI%)
SN12C = assay: cells; assay type: cell-based; conditions: Homo sapiens, 10 μM, read-out: growth inhibition % (GI%)
UO-31 = assay: cells; assay type: cell-based; conditions: Homo sapiens; UO-31; 10 μM; read-out: growth inhibition % (GI%)
PC-3 = assay: cells; assay type: cell-based; conditions: Homo sapiens; PC-3; 10 μM; read-out: growth inhibition % (GI%)
DU-145 = assay: cells; assay type: cell-based; conditions: Homo sapiens; DU-145; 10 μM; read-out: growth inhibition % (GI%)
MCF7 = assay: cells; assay type: cell-based; conditions: Homo sapiens; MCF7; 10 μM; read-out: growth inhibition % (GI%)
MDA-MB-231/ATCC = assay: NCI 60 cell line antiproliferative screening (SRB), Breast cancer; assay type: cell-based; conditions: Homo sapiens, MDA-MB-231, read-out: growth inhibition % (GI%)
HS 578T = assay: cells; assay type: cell-based; conditions: Homo sapiens; HS 578T; 10 μM; read-out: growth inhibition % (GI%)
BT-549 = assay: cells; assay type: cell-based; conditions: Homo sapiens; BT-549; 10 μM; read-out: growth inhibition % (GI%)
T-47D = assay: cells; assay type: cell-based; conditions: Homo sapiens, T47D; T-47D; 10 μM; read-out: growth inhibition % (GI%)
[1] = system: panel of 60 tumour cell lines; assay: NCI 60 cell line antiproliferative screening (SRB), whole panel or subpanels (means, ranges, words); assay type: cell-based, human
MDA-MB-468 = assay: NCI 60 cell line antiproliferative screening (SRB), Breast cancer; conditions: Homo sapiens, MDA-MB-468, read-out: growth inhibition % (GI%)

Compound: COc1ccc(Oc2ccc(C=NNC(=O)CSc3nc4ccccc4c(=O)n3-c3ccccc3)cc2)cc1 [6c, N'-(4–(4-methoxyphenoxy)benzylidene)-2-((4-oxo-3-phenyl-3,4-dihydroquinazolin-2-yl)thio)acetohydrazide]
- inhibition at 10 µM (CCRF-CEM): < 15%
- inhibition at 10 µM (K-562): < 15%
- inhibition at 10 µM (MOLT-4): < 15%
- inhibition at 10 µM (RPMI-8226): < 15%
- inhibition at 10 µM (SR): < 15%
- inhibition at 10 µM (A549/ATCC): < 15%
- inhibition at 10 µM (EKVX): < 15%
- inhibition at 10 µM (HOP-62): < 15%
- inhibition at 10 µM (HOP-92): < 15%
- inhibition at 10 µM (NCI-H322M): < 15%
- inhibition at 10 µM (NCI-H460): < 15%
- inhibition at 10 µM (COLO-205): < 15%
- inhibition at 10 µM (HCT-116): < 15%
- inhibition at 10 µM (HT29): < 15%
- inhibition at 10 µM (KM12): < 15%
- inhibition at 10 µM (SW-620): < 15%
- inhibition at 10 µM (SF-268): < 15%
- inhibition at 10 µM (SF-295): < 15%
- inhibition at 10 µM (SF-539): < 15%
- inhibition at 10 µM (SNB-19): < 15%
- inhibition at 10 µM (U251): < 15%
- inhibition at 10 µM (LOX IMIV): < 15%
- inhibition at 10 µM (MALME-3M): < 15%
- inhibition at 10 µM (MDA-MB-435): < 15%
- inhibition at 10 µM (SK-MEL-2): < 15%
- inhibition at 10 µM (SK-MEL-28): < 15%
- inhibition at 10 µM (SK-MEL-5): < 15%
- inhibition at 10 µM (UACC-62): < 15%
- inhibition at 10 µM (IGROV1): < 15%
- inhibition at 10 µM (OVCAR-5): < 15%
- inhibition at 10 µM (OVCAR-8): < 15%
- inhibition at 10 µM (NCI/ADR-RES): < 15%
- inhibition at 10 µM (SK-OV-3): < 15%
- inhibition at 10 µM (786-0): < 15%
- inhibition at 10 µM (A498): 17.2%
- inhibition at 10 µM (ACHN): < 15%
- inhibition at 10 µM (SN12C): < 15%
- inhibition at 10 µM (UO-31): < 15%
- inhibition at 10 µM (PC-3): < 15%
- inhibition at 10 µM (DU-145): < 15%
- inhibition at 10 µM (MCF7): < 15%
- inhibition at 10 µM (MDA-MB-231/ATCC): < 15%
- inhibition at 10 µM (HS 578T): < 15%
- inhibition at 10 µM (BT-549): < 15%
- inhibition at 10 µM (T-47D): < 15%
- antiproliferative activity against all tested cell lines ([1]; 10 μM single dose): no activity
- inhibition at 10 µM ([1]; Homo sapiens, 60 cell, mean over the cell line panel, 10 μM, read-out: Mean growth inhibition % (mean GI%)): 0%
- Mean growth inhibition % (mean GI%) ([1]; mean over the cell line panel, 10 μM): < 0%
- inhibition at 10 µM (MDA-MB-468): < 15%
